Reference: US12257214B2, “Compositions and methods comprising deoxy-pentitols” (The Charlotte Mecklenburg Hospital Authority, priority 2021, dated 2025)
Like-named read-outs stand apart in the source and are kept apart here.

Experiments:
[1] = tested on: prostate cancer cell line LNCaP; experiment: LNCaP cell culture, growth and death (FIG. 5, FIG. 10); type: cell-based; conditions: for number of cancer cells / anticancer effect: 10 mM, 7 days (FIG. 10)
Protocol: A dose dependent decrease in cell density was clearly detected with 2-deoxyribitol treatment, but not with ribitol treatment.
Less than 50% of cells and 10% of cells were detected with the treatment of 10 mM and 50 mM 2-deoxyribitol, respectively.

MCF7 cells = experiment: Mammosphere formation (FIG. 4); type: cell-based; conditions: MCF7, Vitamin C 50 μM 5 days, then normal medium 6 days
Protocol: Cells were also treated with Vitamin C (VitC) at a concentration of 50 μM for 5 days (5d) and then returned to normal medium (NM) for 6 days (d6), without (lower left panel) or with 2-deoxyribitol (Drug, lower right panel). The formation of cancer mammospheres, considered to be cancer stem cell-rich population, can be seen in culture without Drug treatment, and with Vitamin C treatment only. Drug treatment greatly reduces to eliminates the formation of cancer mammospheres.
To examine mammosphere formation, MCF7 cells were grown for 11 days with or without 2-deoxyribitol (drug) treatment (FIG. 4, top panels). In addition, MCF7 cells were treated with Vitamin C at the concentration of 50 μM for 5 days and then returned to normal medium (“NM”) for 6 days (FIG. 4, lower panels).

[2] = tested on: breast cancer cell line MCF7; experiment: MCF7 cell culture, growth and death (FIG. 2); type: cell-based; conditions: MCF7, 0.4-50 mM, 3 day treatment
Protocol: From left-top-to-bottom: Control, 0.4 mM Drug, 2 mM rib, and 10 mM Drug; From right-top-to-bottom: 0.4 mM rib; 2 mM Drug; 10 mM rib; and 50 mM Drug.
However, this effect was not related to the enhanced expression of glycosylation of α-DG.

[3] = tested on: alpha dystroglycan (α-DG); conditions: cited from earlier work
[4] = Pei Lu et al., (2020) Sci Rep 10(1):4935

| Structure (SMILES) | number of cancer cells / anticancer effect [1] | glycosylation of α-DG [3, 4] | further results |
| --- | --- | --- | --- |
| O=CC[C@H](O)[C@H](O)CO [2-deoxyribose, reference compound] | did not show the same anticancer effects | – | – |
| O=C1O[C@H]([C@@H](O)CO)C(O)=C1O [Vitamin C, reference compound] | – | – | number of mammospheres, Vitamin C then normal medium (MCF7 cells): greatly increased the number of well-defined mammospheres |
| OC[C@@H](O)[C@@H](O)[C@@H](O)CO [ribitol, reference compound] | did not show the same anticancer effects | – | effect on cell growth, death and morphology [2]: no clear effect on cell growth and morphology; effect on cell growth, death and cell density ([1]; 2-50 mM, 4 days): slightly increased; glycosylation of α-DG ([3]; some cancer cells including MCF7, background statement): enhances glycosylation of α-DG |
| O=P(O)(O)OC[C@@H](O)[C@@H](O)[C@@H](O)CO [ribitol-5-phosphate] | – | showed an effect of enhancing glycosylation of α-DG | – |
| O=C[C@H](O)[C@H](O)[C@H](O)CO [ribose] | – | showed an effect of enhancing glycosylation of α-DG | – |
| O=C(CO)[C@H](O)[C@H](O)CO [ribulose] | – | showed an effect of enhancing glycosylation of α-DG | – |
